In US10829796B2, “Bacteria identification and antimicrobial susceptibility test” (priority 2015, dated 2020):

Legend:
Assay type in all cases: cell-based
Staphylococcus aureus = assay: Antibiotic susceptibility testing (colour of media), spiked milk; conditions: bacteria sample 5c
Method: Tables 36 to 38 which follow show further examples of antibiotic susceptibility testing performed in accordance with the present invention. Table 36, antibiotic susceptibility testing of Staphylococcus aureus in Mueller Hinton and Tryptic Soy Broth at pre-incubation and at between 15-24 h. Tables 37 and 38, antimicrobial susceptibility testing of Streptococcus uberis and E. coli with the addition of gram negative specific antibiotic aztreonam. Tables 38 to 49 show further examples of antibiotic susceptibility testing and the outcomes are aligned with the described inventions.

Streptococcus uberis [1] = assay: Colour change of enrichment media with pH indicator, bacteria in milk (stabilizing agent); conditions: excess concentration (Table 4e, 0.04%) in presence of milk; all inoculums investigated
Description: The present invention overcomes these limitations through inclusion of one or more stabilizing agents which suppresses the potential inhibitory effect of the colour based pH indicator. As such, increased concentrations of the colour based pH indicator (e.g. phenol red) may be used in the test, thereby achieving stability in the colour change associated with bacteria growth. An example of a stabilizing agent according to the present invention is milk.
In this Example, liquid culture media is used which allows early and easy identification of susceptible antimicrobials to support decision of antimicrobial selection to treat bacterial infections. It also allows the detection of bacteria such as gram+ and/or gram-bacteria in clinical samples are present and/or allows estimation of the inoculum from kinetic analyses of colour change. The base of this liquid culture medium is a general purpose liquid enrichment medium for example tryptic soy broth (Soybean-Casein Digest Medium) but could also be Mueller Hinton broth. This TSB media has excess concentration of a pH indicator such as phenol red and/or bromocresol purple and milk. […] Colorimetric analyses can performed by the naked eye or by an optical reader for example via CCD camera chip or photo diode. […]

Streptococcus uberis [2] = assay: Group D Streptococci identification, esculin/ferric citrate in TSB (blackening = growth), bacteria in milk; conditions: TSB containing 0.5% esculin and 0.25% ferric citrate + 80 uL spiked milk; 100 ug/ml aztreonam and/or 0.5 mg/mL phenol red
Method: By way of illustration, the same experiment was conducted as above, only this time using clinical milk samples obtained from a bovine animal suspect of being infected with mastitis.
However, Applicant has discovered that increased amounts of esculin and ferric citrate may be used in milk derived clinical samples. For example, at concentrations of at least 2% esculin and 1% ferric citrate, the growth of Streptococcus uberis is not inhibited.
Note, in the experiments above, the clinical sample tested was milk obtained from a bovine animal suspected of being infected by mastitis. If a non-milk clinical sample were to be tested, then inclusion of a stabilizing agent (e.g. milk in the form of a liquid or powder) would be required in order to suppress the growth inhibitory effect of esculin and ferric citrate at the higher concentrations used according to this invention.
Applicant further discovered that TSB containing 0.5% esculin and 0.25% ferric citrate and 80 uL of spiked Streptococcus uberis milk sample which also contained 100 ug/ml aztreonam concentration (antibiotic which has activity against many gram-bacteria such as E. coli) and/or in combination with 0.5 mg/mL phenol red led to easy detectable colour changes. No inhibition of Streptococcus uberis due to phenol red or aztreonam was detected.

[3] = T = 0 hours (pre incubation), drug 0.01 μg/ml, Mueller Hinton (70 ul composition 26)
[4] = T = 0 hours (pre incubation), drug 0.05 μg/ml, Mueller Hinton (70 ul composition 26)
[5] = T = 0 hours (pre incubation), drug 0.1 μg/ml, Mueller Hinton (70 ul composition 26)
[6] = T = 0 hours (pre incubation), drug 0.5 μg/ml, Mueller Hinton (70 ul composition 26)
[7] = T = 0 hours (pre incubation), drug 1 μg/ml, Mueller Hinton (70 ul composition 26)
[8] = T = 0 hours (pre incubation), drug 5 μg/ml, Mueller Hinton (70 ul composition 26)
[9] = T = 0 hours (pre incubation), drug 10 μg/ml, Mueller Hinton (70 ul composition 26)
[10] = T = 0 hours (pre incubation), drug 50 μg/ml, Mueller Hinton (70 ul composition 26)
[11] = T = 0 hours (pre incubation), drug 100 μg/ml, Mueller Hinton (70 ul composition 26)
[12] = T = 0 hours (pre incubation), drug 500 μg/ml, Mueller Hinton (70 ul composition 26)
[13] = T = 15-24 h at 35° C., drug 0.01 μg/ml, Mueller Hinton (70 ul composition 26)
[14] = T = 15-24 h at 35° C., drug 0.05 μg/ml, Mueller Hinton (70 ul composition 26)
[15] = T = 15-24 h at 35° C., drug 0.1 μg/ml, Mueller Hinton (70 ul composition 26)
[16] = T = 15-24 h at 35° C., drug 0.5 μg/ml, Mueller Hinton (70 ul composition 26)
[17] = T = 15-24 h at 35° C., drug 1 μg/ml, Mueller Hinton (70 ul composition 26)
[18] = T = 15-24 h at 35° C., drug 5 μg/ml, Mueller Hinton (70 ul composition 26)
[19] = T = 15-24 h at 35° C., drug 10 μg/ml, Mueller Hinton (70 ul composition 26)
[20] = T = 15-24 h at 35° C., drug 50 μg/ml, Mueller Hinton (70 ul composition 26)
[21] = T = 15-24 h at 35° C., drug 100 μg/ml, Mueller Hinton (70 ul composition 26)
[22] = T = 15-24 h at 35° C., drug 500 μg/ml, Mueller Hinton (70 ul composition 26)

| SMILES | Colour of media (Staphylococcus aureus; [3]) | Colour of media (Staphylococcus aureus; [4]) | Colour of media (Staphylococcus aureus; [5]) | Colour of media (Staphylococcus aureus; [6]) | Colour of media (Staphylococcus aureus; [7]) | Colour of media (Staphylococcus aureus; [8]) | Colour of media (Staphylococcus aureus; [9]) | Colour of media (Staphylococcus aureus; [10]) | Colour of media (Staphylococcus aureus; [11]) | Colour of media (Staphylococcus aureus; [12]) | Colour of media (Staphylococcus aureus; [13]) | Colour of media (Staphylococcus aureus; [14]) | Colour of media (Staphylococcus aureus; [15]) | Colour of media (Staphylococcus aureus; [16]) | Colour of media (Staphylococcus aureus; [17]) | Colour of media (Staphylococcus aureus; [18]) | Colour of media (Staphylococcus aureus; [19]) | Colour of media (Staphylococcus aureus; [20]) | Colour of media (Staphylococcus aureus; [21]) | Colour of media (Staphylococcus aureus; [22]) | further results |
| --- | --- | --- | --- | --- | --- | --- | --- | --- | --- | --- | --- | --- | --- | --- | --- | --- | --- | --- | --- | --- | --- |
| CC1=C(C(=O)O)N2C(=O)[C@@H](NC(=O)[C@H](N)c3ccccc3)[C@H]2SC1 [Cephalexin] | red | red | red | red | red | red | red | red | red | red | yellow | yellow | yellow | yellow | red | red | red | red | red | red | – |
| CN[C@@H]1[C@H](O[C@H]2[C@H](O[C@H]3[C@H](O)[C@@H](O)[C@H](NC(=N)N)[C@@H](O)[C@@H]3NC(=N)N)O[C@@H](C)[C@]2(O)CO)O[C@@H](CO)[C@H](O)[C@H]1O [Dihydrostreptomycin] | – | – | – | – | – | – | – | – | – | – | – | – | – | – | – | – | – | – | – | – | Colour of media (Staphylococcus aureus; T = 0 hours (pre incubation), drug 0.01 μg/ml, Tryptic Soy (70 ul composition 2c)): red; Colour of media (Staphylococcus aureus; T = 0 hours (pre incubation), drug 0.05 μg/ml, Tryptic Soy (70 ul composition 2c)): red; Colour of media (Staphylococcus aureus; T = 0 hours (pre incubation), drug 0.1 μg/ml, Tryptic Soy (70 ul composition 2c)): red; Colour of media (Staphylococcus aureus; T = 0 hours (pre incubation), drug 0.5 μg/ml, Tryptic Soy (70 ul composition 2c)): red; Colour of media (Staphylococcus aureus; T = 0 hours (pre incubation), drug 1 μg/ml, Tryptic Soy (70 ul composition 2c)): red; Colour of media (Staphylococcus aureus; T = 0 hours (pre incubation), drug 5 μg/ml, Tryptic Soy (70 ul composition 2c)): red; Colour of media (Staphylococcus aureus; T = 0 hours (pre incubation), drug 10 μg/ml, Tryptic Soy (70 ul composition 2c)): red; Colour of media (Staphylococcus aureus; T = 0 hours (pre incubation), drug 50 μg/ml, Tryptic Soy (70 ul composition 2c)): red; Colour of media (Staphylococcus aureus; T = 0 hours (pre incubation), drug 100 μg/ml, Tryptic Soy (70 ul composition 2c)): red; Colour of media (Staphylococcus aureus; T = 0 hours (pre incubation), drug 500 μg/ml, Tryptic Soy (70 ul composition 2c)): red; Colour of media (Staphylococcus aureus; T = 15-24 h at 35° C., drug 0.01 μg/ml, Tryptic Soy (70 ul composition 2c)): yellow; Colour of media (Staphylococcus aureus; T = 15-24 h at 35° C., drug 0.05 μg/ml, Tryptic Soy (70 ul composition 2c)): yellow; Colour of media (Staphylococcus aureus; T = 15-24 h at 35° C., drug 0.1 μg/ml, Tryptic Soy (70 ul composition 2c)): yellow; Colour of media (Staphylococcus aureus; T = 15-24 h at 35° C., drug 0.5 μg/ml, Tryptic Soy (70 ul composition 2c)): yellow; Colour of media (Staphylococcus aureus; T = 15-24 h at 35° C., drug 1 μg/ml, Tryptic Soy (70 ul composition 2c)): yellow; Colour of media (Staphylococcus aureus; T = 15-24 h at 35° C., drug 5 μg/ml, Tryptic Soy (70 ul composition 2c)): yellow; Colour of media (Staphylococcus aureus; T = 15-24 h at 35° C., drug 10 μg/ml, Tryptic Soy (70 ul composition 2c)): yellow; Colour of media (Staphylococcus aureus; T = 15-24 h at 35° C., drug 50 μg/ml, Tryptic Soy (70 ul composition 2c)): yellow; Colour of media (Staphylococcus aureus; T = 15-24 h at 35° C., drug 100 μg/ml, Tryptic Soy (70 ul composition 2c)): red; Colour of media (Staphylococcus aureus; T = 15-24 h at 35° C., drug 500 μg/ml, Tryptic Soy (70 ul composition 2c)): red |
| NC[C@@H]1O[C@H](O[C@H]2[C@@H](O)[C@H](O[C@@H]3[C@@H](O)[C@H](N)C[C@H](N)[C@H]3O[C@H]3O[C@H](CN)[C@@H](O)[C@H](O)[C@H]3N)O[C@@H]2CO)[C@H](N)[C@@H](O)[C@@H]1O [Neomycin] | red | red | red | red | red | red | red | red | red | red | yellow | yellow | yellow | yellow | yellow | red | red | red | red | red | – |
| Cc1cc(C2(c3cc(C)c(O)c(Br)c3)OS(=O)(=O)c3ccccc32)cc(Br)c1O [bromocresol purple] | – | – | – | – | – | – | – | – | – | – | – | – | – | – | – | – | – | – | – | – | Growth inhibition (Streptococcus uberis [1]): does not inhibit growth |
| O=S1(=O)OC(c2ccc(O)cc2)(c2ccc(O)cc2)c2ccccc21 [phenol red] | – | – | – | – | – | – | – | – | – | – | – | – | – | – | – | – | – | – | – | – | Inhibition of Streptococcus uberis (Streptococcus uberis [2]): No inhibition |
